# PubChem BioAssay (NCI)
#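 Assay format: 96-well plates, 48-hour exposure. At the GI50, growth is halved. TGI: total growth inhibition.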
# Tests used:
# Experiment in all cases: NCI-60 cell line screen, 48 h
# [1] = tested on: HOP-92 NSCLC
# [2] = tested on: MDA-MB-435
# [3] = tested on: HCT-15 colon
# [4] = tested on: NCI-H460 lung
# [5] = tested on: SNB-19 CNS
# [6] = tested on: ACHN renal
# [7] = tested on: MCF7 breast
# [8] = tested on: SNB-75 CNS
# [9] = tested on: SK-MEL-2 melanoma
# [10] = tested on: UO-31 renal
# [11] = tested on: OVCAR-4 ovarian
# [12] = tested on: KM12 colon
# [13] = tested on: HOP-62 NSCLC
# [14] = tested on: SK-MEL-5 melanoma
# [15] = tested on: SF-268 CNS
# [16] = tested on: EKVX NSCLC
# [17] = tested on: MALME-3M melanoma
# [18] = tested on: SK-OV-3 ovarian
# [19] = tested on: RPMI-8226 leukemia
# [20] = tested on: U251 CNS
# [21] = tested on: CAKI-1 renal
# [22] = tested on: UACC-257 melanoma
# [23] = tested on: OVCAR-8 ovarian
# [24] = tested on: NCI-H23 lung
# [25] = tested on: A549 NSCLC
# [26] = tested on: PC-3 prostate
# [27] = tested on: HL-60(TB) leukemia
# [28] = tested on: UACC-62 melanoma
structure (smiles),measurement,setting,value
COc1ccc(/C=C2\CC(C)CC3C2=NN(C(C)=O)C3c2ccc(OC)cc2)cc1 (stereo not given),TGI,[1],44.2 µM
same,GI50,[2],19.9 µM
same,TGI,[2],49.1 µM
same,GI50,[3],16 µM
same,TGI,[3],38.7 µM
same,GI50,[4],18.5 µM
same,TGI,[4],48.7 µM
same,GI50,[5],27.6 µM
same,TGI,[5],> 100 µM
same,GI50,[6],17.2 µM
same,TGI,[6],39.3 µM
same,GI50,[7],20 µM
same,TGI,[7],63.3 µM
same,GI50,[8],17.7 µM
same,TGI,[8],53.3 µM
same,GI50,[9],30.3 µM
same,TGI,[9],> 100 µM
same,GI50,[10],19 µM
same,TGI,[10],64.8 µM
same,GI50,[11],12.2 µM
same,TGI,[11],36.5 µM
same,GI50,[12],16.9 µM
same,TGI,[12],46.5 µM
same,GI50,[13],20 µM
same,TGI,[13],41.4 µM
same,GI50,[14],13.9 µM
same,TGI,[14],31.3 µM
same,GI50,[15],20.8 µM
same,TGI,[15],53.2 µM
same,GI50,[16],27.3 µM
same,TGI,[16],> 100 µM
same,GI50,[17],17.8 µM
same,TGI,[17],37.9 µM
same,GI50,[18],28.7 µM
same,TGI,[18],> 100 µM
same,GI50,[19],10.9 µM
same,TGI,[19],53.2 µM
same,GI50,[20],14.4 µM
same,TGI,[20],31 µM
same,GI50,[21],30.5 µM
same,TGI,[21],> 100 µM
same,GI50,[22],19.8 µM
same,TGI,[22],45 µM
same,GI50,[23],28.1 µM
same,TGI,[23],> 100 µM
same,GI50,[24],19.6 µM
same,TGI,[24],45.2 µM
same,GI50,[25],25.1 µM
same,TGI,[25],> 100 µM
same,GI50,[26],24.2 µM
same,TGI,[26],> 100 µM
same,GI50,[27],13.7 µM
same,TGI,[27],61 µM
same,GI50,[28],17 µM
same,TGI,[28],35.3 µM
